This is an account of results in PubChem BioAssay AID328 (DTP/NCI, 2004).

The subject of this test is BDF1 mice, P388 leukemia ip, median survival T/C. As to the kind of experiment: NCI In Vivo Anticancer Drug Screen. Data for tumor model P388 Leukemia (intraperitoneal) in B6D2F1 (BDF1) mice. As to conditions: endpoint: median survival time, higher = longer survival. The method in brief:
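Vehicle-dosed animals serve as the reference; survival of compound-dosed, tumour-implanted mice is divided by it.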

Setting [1] is: dose: 25.0 mg/kg/injection, schedule: Q01DX009 (ip), vehicle: Klucel (hydroxypropylcellulose) (HPC).
Where [2] appears, read: dose: 25.0 mg/kg/injection, schedule: Q04DX003 (ip), vehicle: Klucel (hydroxypropylcellulose) (HPC).
The mark [3] stands for this setting: dose: 50.0 mg/kg/injection, schedule: Q01DX009 (ip), vehicle: Klucel (hydroxypropylcellulose) (HPC).
Where [4] appears, read: dose: 50.0 mg/kg/injection, schedule: Q04DX003 (ip), vehicle: Klucel (hydroxypropylcellulose) (HPC).
Setting [5] is: dose: 100.0 mg/kg/injection, schedule: Q01DX009 (ip), vehicle: Klucel (hydroxypropylcellulose) (HPC).
Where [6] appears, read: dose: 100.0 mg/kg/injection, schedule: Q04DX003 (ip), vehicle: Klucel (hydroxypropylcellulose) (HPC).
Setting [7] is: dose: 200.0 mg/kg/injection, schedule: Q01DX009 (ip), vehicle: Klucel (hydroxypropylcellulose) (HPC).
[8] abbreviates: dose: 200.0 mg/kg/injection, schedule: Q04DX003 (ip), vehicle: Klucel (hydroxypropylcellulose) (HPC).
Setting [9] is: dose: 400.0 mg/kg/injection, schedule: Q01DX009 (ip), vehicle: Klucel (hydroxypropylcellulose) (HPC).
Where [10] appears, read: dose: 400.0 mg/kg/injection, schedule: Q04DX003 (ip), vehicle: Klucel (hydroxypropylcellulose) (HPC).
The mark [11] stands for this setting: dose: 100.0 mg/kg/injection, schedule: Q01DX009 (ip), vehicle: saline with Tween-80.
Setting [12] is: dose: 200.0 mg/kg/injection, schedule: Q01DX009 (ip), vehicle: saline with Tween-80.
The mark [13] stands for this setting: dose: 25.0 mg/kg/injection, schedule: Q01DX009 (ip), vehicle: saline with Tween-80.
Setting [14] is: dose: 50.0 mg/kg/injection, schedule: Q01DX009 (ip), vehicle: saline with Tween-80.
Setting [15] is: dose: 400.0 mg/kg/injection, schedule: Q04DX003 (ip), vehicle: saline.

The structures appear in SMILES notation. Values joined by “and” are separate entries in the source; they are usually repeats but may differ in a detail not shown here. Equal values may be shown once. Inconclusive results and toxic doses are left out.

Consider `CC1C(=O)OC(C)(C)OC1=O`, for which the T/C under setting [1] is 106 % of control; the T/C under setting [2] is 91 % of control; the T/C under setting [3] was 97 % of control; the T/C under setting [4] was 123 % of control; the T/C under setting [5] is 105 % of control; the T/C under setting [6] is 97 % of control. Further, the T/C was 104 % of control under setting [7], 94 % of control under setting [8], 99 % of control under setting [9] and 106 % of control under setting [10].

Regarding `CC1OCC(Br)([N+](=O)[O-])CO1` (stereo not drawn), the T/C by setting is: (dose: 12.5 mg/kg/injection, schedule: Q04DX003 (ip), vehicle: saline) 99 % of control; (dose: 25.0 mg/kg/injection, schedule: Q04DX003 (ip), vehicle: saline) 107 % of control.

As to `CCC(=O)Nc1cc(Cl)ccc1C`, the T/C is 118 % of control under setting [4]; 109 % of control under setting [5]; 109 % of control under setting [6]; 90 % of control under setting [7]; 104 % of control under setting [8]; 90 % of control under setting [9]. In addition, the T/C under setting [10] was 100 % of control.

Consider `CCC1=CC(C(O)CC(C)C)C(C)(Cc2ccc(CC)cn2)NC1c1ccccc1` (stereo not drawn), for which the T/C was 101 % of control (dose: 25.0 mg/kg/injection, schedule: Q04DX002 (ip), vehicle: saline with Tween-80) and 106 % of control (dose: 50.0 mg/kg/injection, schedule: Q04DX002 (ip), vehicle: saline with Tween-80).

As to `COc1ccc(C(O)c2ccccc2C(=O)Nc2ccccc2)cc1` (stereo not drawn), the T/C is, setting by setting: under setting [11], 90 % of control; under setting [12], 100 % of control.

In the case of `CCC1CN2CCc3cc(O)c(O)cc3C2CC1CC1NCCc2c1[nH]c1ccc(O)cc21` (stereo not drawn), the T/C is 161 % of control (dose: 1.0 mg/kg/injection, schedule: Q01DX009 (ip), vehicle: Klucel (hydroxypropylcellulose) (HPC)) and 163 % of control (dose: 2.0 mg/kg/injection, schedule: Q01DX009 (ip), vehicle: Klucel (hydroxypropylcellulose) (HPC)).

Take `CC(C)(C)C1Sc2nc3ccccc3n2C1=O` (stereo not drawn): the T/C was 114 % of control (dose: 12.5 mg/kg/injection, schedule: Q01DX009 (ip), vehicle: Klucel (hydroxypropylcellulose) (HPC)); 100 % of control (dose: 12.5 mg/kg/injection, schedule: Q04DX003 (ip), vehicle: Klucel (hydroxypropylcellulose) (HPC)); 114 % of control under setting [1]; 120 % of control under setting [2]; 120 % of control under setting [4].

Consider `CCOC(=O)c1c(NC(=O)CCC(=O)Nc2sc(C)c(C)c2C(=O)OCC)sc(C)c1C`, for which the T/C was 109 % of control under setting [13]; 90 % of control under setting [14]; 87 % of control (dose: 50.0 mg/kg/injection, schedule: Q04DX003 (ip), vehicle: saline); 90 % of control under setting [11]; 91 % of control under setting [15].

As for `CCOC(=O)CCCN(c1sc(C)c(C)c1C(=O)OCC)S(=O)(=O)c1ccc(C)cc1`, the T/C runs as follows: under setting [13], 104 % of control; under setting [14], 109 % of control; (dose: 50.0 mg/kg/injection, schedule: Q04DX003 (ip), vehicle: saline with Tween-80) 91 % of control; under setting [11], 104 % of control; (dose: 100.0 mg/kg/injection, schedule: Q04DX003 (ip), vehicle: saline with Tween-80) 87 % of control; under setting [12], 95 % of control. Also, the T/C was 95 % of control (dose: 200.0 mg/kg/injection, schedule: Q04DX003 (ip), vehicle: saline with Tween-80) and 87 % of control (dose: 400.0 mg/kg/injection, schedule: Q04DX003 (ip), vehicle: saline with Tween-80).

Regarding `CC[C@H](CC[C@@H](C)[C@H]1CC[C@H]2[C@@H]3CC=C4C[C@@H](O)CC[C@]4(C)[C@H]3CC[C@]12C)C(C)C`, the T/C is, setting by setting: under setting [6], 100 % of control; under setting [8], 86 % of control; under setting [10], 100 % of control.

As for `CC(C)(C)C1CCC(C#N)(NNc2ccccc2)CC1` (stereo not drawn), the T/C was 90 % of control (dose: 50.0 mg/kg/injection, schedule: Q01DX005 (ip), vehicle: saline with Tween-80); 106 % of control (dose: 100.0 mg/kg/injection, schedule: Q01DX005 (ip), vehicle: saline with Tween-80); 89 % of control (dose: 200.0 mg/kg/injection, schedule: Q01DX005 (ip), vehicle: saline with Tween-80).

`CCCCCCCCC(O)CCCCC` (stereo not drawn): the T/C by setting is: under setting [6], 108 % of control; under setting [8], 87 % of control; under setting [10], 95 % of control.

For `COC(=O)CCC(C)C1CCC2C3CCC4CC(SC(=N)N)CCC4(C)C3CCC12C` (stereo not drawn), the T/C is 93 % of control (dose: 1.56 mg/kg/injection, schedule: Q01DX009 (ip), vehicle: suspension in saline); 100 % of control (dose: 3.13 mg/kg/injection, schedule: Q01DX009 (ip), vehicle: suspension in saline); 109 % of control (dose: 6.25 mg/kg/injection, schedule: Q01DX009 (ip), vehicle: suspension in saline); 105 % of control under setting [14]; 103 % of control under setting [11].

For `C[C@@H]1CC2=CC(=O)C=C[C@]2(C)[C@H]2CC[C@@]3(C)[C@@H](CC[C@]3(C)O)[C@H]12`, the T/C is 95 % of control (dose: 50.0 mg/kg/injection, schedule: Q01DX009 (sc), vehicle: steriod suspending solution); 88 % of control under setting [5]; 90 % of control (dose: 100.0 mg/kg/injection, schedule: Q01DX009 (sc), vehicle: steriod suspending solution); 91 % of control under setting [6]; 100 % of control under setting [7]; 86 % of control (dose: 200.0 mg/kg/injection, schedule: Q01DX009 (sc), vehicle: steriod suspending solution). Moreover, the T/C runs as follows: under setting [8], 95 % of control; under setting [9], 88 % of control; under setting [10], 91 % of control.

Take `CS(=O)(=O)Nc1ccc(Nc2c3ccccc3nc3ccccc23)cc1`: the T/C is, setting by setting: (dose: 15.0 mg/kg/injection, schedule: Q04DX003 (ip), vehicle: Klucel (hydroxypropylcellulose) (HPC)) 109 % of control; under setting [1], 95 % of control; under setting [3], 120 % of control; under setting [4], 122 % of control; (dose: 100.0 mg/kg/injection, schedule: Q04DX003 (ip), vehicle: saline) 200 % of control and 209 % of control; (dose: 150.0 mg/kg/injection, schedule: Q04DX003 (ip), vehicle: Klucel (hydroxypropylcellulose) (HPC)) 159 % of control. The T/C is, setting by setting: (dose: 175.0 mg/kg/injection, schedule: Q04DX003 (ip), vehicle: saline) 237 % of control; (dose: 200.0 mg/kg/injection, schedule: Q04DX003 (ip), vehicle: saline) 204 % of control and 223 % of control; (dose: 265.0 mg/kg/injection, schedule: Q04DX003 (ip), vehicle: saline) 250 % of control; under setting [15], 272 % of control and 95 % of control and 100 % of control.

Turning to `CC(C)CCOC(=O)Cc1ccccc1`, the T/C was 100 % of control under setting [5]; 90 % of control under setting [6]; 115 % of control under setting [7]; 113 % of control under setting [8]; 115 % of control under setting [9]; 118 % of control under setting [10].

Regarding `CC1=NNB(O)c2ccsc21`, the T/C was 107 % of control (dose: 12.5 mg/kg/injection, schedule: Q01DX009 (ip), vehicle: saline with Tween-80); 90 % of control under setting [13]; 96 % of control under setting [14].

Turning to `OC(CCl)Cc1ccccc1` (stereo not drawn), the T/C was 109 % of control under setting [13] and 109 % of control under setting [14].

For `O=c1[nH]cnc2sc3c(c12)CCCC3`, the T/C runs as follows: (dose: 100.0 mg/kg/injection, schedule: Q04DX003 (ip), vehicle: saline sonified) 95 % of control; (dose: 200.0 mg/kg/injection, schedule: Q04DX003 (ip), vehicle: saline sonified) 100 % of control; (dose: 400.0 mg/kg/injection, schedule: Q04DX003 (ip), vehicle: saline sonified) 100 % of control.

For the molecule `CC(C)c1ccc(O)c(=O)cc1`, the T/C was 95 % of control (dose: 40.0 mg/kg/injection, schedule: Q01DX010 (ip), vehicle: carboxymethylcellulose (CMC)); 100 % of control (dose: 80.0 mg/kg/injection, schedule: Q01DX010 (ip), vehicle: carboxymethylcellulose (CMC)); 100 % of control (dose: 160.0 mg/kg/injection, schedule: Q01DX010 (ip), vehicle: carboxymethylcellulose (CMC)).
